Results on 3 compounds are retold here after ChEMBL document CHEMBL3217735, “Polyamine-based small molecule epigenetic modulators” (Medchemcomm, 2012).

For data set [1], the target named is Lysine-specific histone demethylase 1A (Homo sapiens) (UniProt O60341). The experiment in a line: Inhibition of N-terminal His6-tagged full length human LSD1 expressed in Escherichia coli BL21 (DE3) using H3K4me2 (1 to 21 amino acids) as substrate assessed as production of H2O2 at 1 uM by luminol-dependent chemiluminescence assay relative to control.
For data set [2], the target named is Histone deacetylase (Homo sapiens) (UniProt Q13547+O15379+Q9UBN7+Q92769+Q9UQL6+Q8WUI4+Q9BY41+Q96DB2+P56524+Q9UKV0+Q969S8). The experiment in a line: Inhibition of HDAC in human HeLa cells using Fluor de Lys as substrate at 1 uM by fluorescence assay relative to control. In kind it is cell-based.
In data set [3] the test system is MCF7. Kind of data set: Cytotoxicity against human MCF7 cells after 96 hrs by MTA reduction assay. Type of data set: functional, cell-based. Conditions: MCF7, 96 h.
The nature of data set [4]: Selectivity ratio of IC50 for human MCF10A cells to IC50 for human MCF7 cells. Type of data set: ADME, cell-based, MCF-10A. The conditions noted are these: MCF10A cells versus MCF7 cells, read-out: Ratio IC50.
The nature of data set [5]: Cytotoxicity against human MCF10A cells after 96 hrs by MTA reduction assay. Conditions: MCF-10A. Type of data set: ADME, cell-based.

For orientation: inhibition means the share of the control response that was lost under treatment. Regarding `C/N=C(\NC)NCCCNCCCNCCCN/C(=N/C)NC`, the inhibition in data set [1] was 85.1%. In turn, `CN(C)c1ccc(CN(CCCNCCCCN)C(=O)CCCCC(=O)NO)cc1` gave an inhibition in data set [2] of 60%. By IC50 is commonly meant the concentration needed to halve the response being measured. High values mean lower potency, low ones higher potency. In the case of `Cc1ccc(CNCCCCNCCCCCC(=O)NCc2ccc(C(=O)Nc3ccccc3N)cc2)cc1`, the IC50 in data set [3] is 0.9 µM; in data set [5] it was 24 µM. Moreover, in data set [4], the selectivity ratio was above 25.
